According to patent publication US9062041B2 (Bayer Intellectual Property GmbH, priority 2011, dated 2015):

Experiments:
[1] = system: female cynomolgus monkeys (Macaca Fascicularis); assay: In-vivo action on fertility in non-human primates (mating study); conditions: 6 months, 10 mg/kg (Example 17 once daily, Example 56 twice daily)
Experimental: 4.4 In-Vivo Action on Fertility in Non-Human Primates (Cynomolgus):
In order to study the effect of substances on fertility, mating studies can be performed in monkeys (Jensen et al. Contraception 81 (2010) 165-171). For this, the test substances are administered to female cynomolgus monkeys (Macaca Fascicularis) which are being kept in groups, then the animals are mated with a male animal. Matings are checked for by sperm detection in daily vaginal smears. Pregnancies resulting therefrom are identified by hormone determinations and ultrasound examinations. Through the changes in the serum oestradiol concentrations during the cycle, (rise before the midcycle LH peak), the fertile phase within a cycle of the individual animals can be determined Matings in this fertile period are described as “timed matings” (matings in the fertile phase). Apart from the absolute number of pregnancies occurring, the effect on the fertility can also be expressed as pregnancies per “timed matings”.
To test the action of EP2 receptor antagonists on fertility in monkeys, Examples 17 and 56 according to the invention were administered over 6 months, dissolved in 0.5 ml castor oil. Example 17 was administered once daily at a dosage of 10 mg/kg (n=10 animals), while Example 56 was administered twice daily at a dosage of 10 mg/kg (n=9 animals). Only the vehicle was administered to a control group (n=10 animals). In the first month of the treatment, no male animal was placed with the female animals. After this, female and male animals were kept together over 5 months, with detection of pregnancies and cycle monitoring.

[2] = target: EP4 subtype of the human PGE2 receptor (Homo sapiens, UniProt P35408); assay: cAMP antagonism test on the human EP4 receptor (HTRF cAMP detection); type: cell-based; conditions: selectivity towards hEP4, IC50 measured by cAMP antagonism test
Summary of the method: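 Competitive HTRF cAMP read-out (cAMP-d2 vs Eu-cryptate anti-cAMP antibody, 665/620 nm ratio) on lysed human EP4 cells. Compound (0.8 nM–16.5 μM) applied 20 min at RT before 60 min PGE2 challenge (3× solution 0.3 nM, IBMX present); 20 min lysis precedes reading.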

[3] = system: ovulated cumulus-oocyte complexes; assay: In-vivo action on post-ovulatory in-vitro fertilization; parameters: species or system mice (strain: B6D2F1); conditions: mice
Source text: 4.3 In-Vivo Action on Post-Ovulatory In-Vitro Fertilization: Substances can exert an influence on fertility by decreasing the fertilizability of oocytes or cumulus-oocyte complexes. In order to study such effects, substances can be administered in vivo and subjected to in vitro fertilization after ovulation of cumulus-oocyte complexes has taken place. The in-vitro fertilization rate, where no test substance is any longer present, allows conclusions as to the in-vivo effects of the test substances. Immature female mice (strain: B6D2F1, Charles River, Suelzfeld, age: 19-25 days) were kept in Macrolon cages in rooms with controlled illumination (12 hrs darkness: 12 hrs light), fed with a standard diet and provided with drinking water ad libitum. The mice were primed with PMSG (pregnant mare serum gonadotropin) (10 IU/animal i.p.). After 48 hours, a stimulus triggering ovulation was created in the animals by one administration of 10 IU/animal i.p. (hCG, human chorionic gonadotropin). The test substances were dissolved in benzyl benzoate/castor oil (1+4 v/v) and administered in a volume of 0.1 ml s.c. 1 hour before hCG (n=5 animals per group). Fourteen hours after hCG administration, the animals were killed. Ovulated oocytes and cumulus-oocyte complexes were obtained from the bursa ovarii and/or oviduct and subjected to in-vitro fertilization, wherein for the fertilization a sperm count of 40000 sperms/0.5 ml was used for 1 hour. Twenty-four hours after the incubation with the sperms, the number of fertilized oocytes is established and the percentage fertilization rate determined.

Sequence of EP4 subtype of the human PGE2 receptor (P35408 whole entry): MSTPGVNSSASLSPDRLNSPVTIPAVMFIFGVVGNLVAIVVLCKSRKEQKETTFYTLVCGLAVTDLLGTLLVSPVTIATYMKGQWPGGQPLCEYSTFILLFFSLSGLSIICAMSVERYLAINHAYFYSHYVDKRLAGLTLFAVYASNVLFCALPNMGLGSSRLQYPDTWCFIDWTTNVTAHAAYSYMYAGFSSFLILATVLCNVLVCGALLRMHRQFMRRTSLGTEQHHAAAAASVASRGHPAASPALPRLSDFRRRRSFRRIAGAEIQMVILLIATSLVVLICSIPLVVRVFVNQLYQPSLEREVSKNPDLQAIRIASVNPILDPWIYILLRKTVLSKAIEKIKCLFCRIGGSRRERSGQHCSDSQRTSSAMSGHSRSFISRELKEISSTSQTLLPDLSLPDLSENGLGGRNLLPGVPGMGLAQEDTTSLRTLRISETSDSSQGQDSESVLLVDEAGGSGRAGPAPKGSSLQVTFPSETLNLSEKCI

| Structure (SMILES) | % Pregnancies/"timed mating" [1] [%] | Pregnancies [1] | Selectivity hEP2/hEP4 [2] | % fertilization with 1 mg/kg ([3]; 1 mg/kg s.c. 1 hour before hCG, in-vitro fertilization rate) [%] | % fertilization with 5 mg/kg ([3]; 5 mg/kg s.c. 1 hour before hCG, in-vitro fertilization rate) [%] | % fertilization with 10 mg/kg ([3]; 10 mg/kg s.c. 1 hour before hCG, in-vitro fertilization rate) [%] | influence on the fertilizability of ovulated cumulus-oocyte complexes ([3]; in-vivo administration) |
| --- | --- | --- | --- | --- | --- | --- | --- |
| COCCNC(=O)c1ccc2nn(CC3CCN(C(=O)c4ccc(Oc5ccc(C(F)(F)F)cc5)cc4)CC3)cc2c1C [Example 17, N-(2-methoxyethyl)-4-methyl-2-[(1-{4-[4-(trifluoromethyl)-phenoxy]benzoyl}-piperidin-4-yl)-methyl]-2H-indazol-5-carboxamide] | 6 | 3 | xxx (xxx > 100) | 20 ± 10 | 9 ± 1 | 8 ± 4 | dose-dependent influence |
| Cc1c(C(=O)NCC(F)(F)F)ccc2nn(CC3CCN(C(=O)c4ccc(Oc5ccc(F)cc5)cc4)CC3)cc12 [Example 283, 2-({1-[4-(4-fluorophenoxy)benzoyl]piperidin-4-yl}methyl)-4-methyl-N-(2,2,2-trifluoroethyl)-2H-indazol-5-carboxamide] | – | – | xxx (xxx > 100) | – | – | – | – |
| COCCNC(=O)c1ccc2nn(CC3CCN(C(=O)c4ccc(-c5ccc(F)cc5)cc4F)CC3)cc2c1C [Example 42, 2-({1-[(3,4′-difluoro-biphenyl-4-yl)-carbonyl]piperidin-4-yl}methyl)-N-(2-methoxyethyl)-4-methyl-2H-indazol-5-carboxamide] | – | – | xxx (xxx > 100) | – | – | – | – |
| COCCNC(=O)c1ccc2nn(CC3CN(C(=O)c4ccc(Cl)cc4)C3)cc2c1C [Example 117, 2-{[1-(4-chlorobenzoyl)azetidin-3-yl]methyl}-N-(2-methoxyethyl)-4-methyl-2H-indazol-5-carboxamide] | – | – | xxx (xxx > 100) | – | – | – | – |
